Experimental data reported in patent US6696486B1, “Medical use for atypical β-adrenoceptor agonists” (Glaxo Group Limited, priority 1992, dated 2004).

Columns and labels:
[1] = test system: piroxicam-induced antral damage; type: in vivo, rat
[2] = test system: indomethacin-induced antral damage; test: indomethacin-induced gastric antral lesions in the re-fed rat (Method 2); type: in vivo; details: for % Protection: single dose 30 minutes before indomethacin (60 mg/kg s.c.)
Description: An experimental model in which atypical beta-adrenoceptor agonists may be shown to be of use in the treatment of gastrointestinal disorders is described below as Method 2. The procedure is based upon that described by H. Satoh et. al., Gastroenterology, 81, 719-725 (1981) in which the effect of compounds on indomethacin-induced gastric antral lesions in the re-fed rat is investigated. Indomethacin is an example of the class of compound known as non-steroidal anti-inflammatory drugs (NSAIDs), the use of which is frequently associated with gastrointestinal ulcers.
Food (but not water) is withheld from female random hooded rats (70-120 g) for 24 hours and then the rats are re-fed with Rat and Mouse No. 1 Maintenance Diet. After 1 hour of access to food, the rats are dosed orally with either the test compound or solvent (0.5% w/v methyl cellulose in water). 30 minutes later, indomethacin (60 mg/kg; dissolved in 1% w/v NaHCO3 in saline) is administered as a single subcutaneous injection at the back of the neck. Subsequently, the rats are allowed food, but water is withheld, and the animals are humanely killed by cervical dislocation at 6 hours post dose. Control animals received a single subcutaneous dose of the appropriate solvent.
The rat's stomach is removed (with a small amount of duodenum attached), opened along the greater curvature and the contents removed by washing with 0.9% w/v sodium chloride solution (saline). The opened stomach is pinned out (mucosal surface uppermost) on a polystyrene mat and the area of damage assessed by placing a grid (composed of 1 mm squares) over the antral region. Antral damage appears as discrete black or dark brown ulcers. The total area of antral damage is then expressed as a percentage of the total surface area of the antrum.
The protective effect of the test compound on indomethacin-induced antral damage is calculated as a percentage using the following equation: [formula]

[3] = test system: indomethacin-induced ulceration of the small intestine; test: indomethacin-induced ulceration of the small intestine in the rat (Method 3); type: in vivo; details: single dose 30 minutes before indomethacin (15 mg/kg p.o.)
Description: Another experimental model in which atypical beta-adrenocopter agonists may be shown to be of use in the treatment of gastrointestinal disorders is described below as Method 3. This is a model of indomethacin-induced ulceration of the small intestine in the rat.
Female random hooded rats (100-150 g) are allowed free access to food and water. The rats are dosed orally with either the test compound (1 ml per 100 g of an appropriated dose) or solvent (0.5% w/v methyl cellulose in water). 30 minutes later, indomethacin (15 mg/kg) is administered orally using a dose volume of 1 ml per 100 g of a 1.5 mg/ml solution of indomethacin in 1% w/v NaHCO3. The animals are humanely killed by cervical dislocation at 48 hours post dose.
The rat's small intestine is removed, opened along its length and the contents removed by washing with 0.9% w/v sodium chloride solution (saline). The opened small intestine is pinned out (mucosal surface uppermost) on a polystyrene mat and the area of damage assessed by placing a grid (composed of 1 mm squares) over the preparation. The number of visible ulcers (appearing as discrete black or brown lesions) running the length of the small intestine is counted. The protective effect of the test compound is calculated as a percentage using the following equation: [formula]

[4] = inhibition of indomethacin-induced antral ulceration in rat
[5] = 0.5 mg/kg p.o., single dose 30 minutes before NSAID

Q: Which “percentage area of antral damage” value ([1]; female, random hooded, rat, in vivo, sc, 60 mg/kg, 6 h) does the source give for `CN1C(C(=O)Nc2ccccn2)=C(O)c2ccccc2S1(=O)=O` [piroxicam, reference compound] here?
A: Its value is 21±3%.

Q: How did the “Maximum Inhibition (dose; mg/kg p.o.)” value ([2]; dose 3 mg/kg p.o.) turn out when `C[C@@H](Cc1ccc(OCC(=O)O)cc1)NC[C@@H](O)c1cccc(Cl)c1` [(S,S)-N-[2-(4-carboxymethoxyphenyl)-1-methylethyl]-2-hydroxy-2-(3-chlorophenyl)ethanamine] was run?
A: Its value is 97% (3).

Q: What about the ED50 [2, 4] of the same compound?
A: Its ED50 is 0.8 mg/kg p.o.

Q: Which results are given for `COC(=O)COc1ccc(C[C@@H](C)NC[C@@H](O)c2cccc(Cl)c2)cc1` [(S,R)-N-[2-(4-carbomethoxymethoxyphenyl)-1-methylethyl]-2-hydroxy-2-(3-chlorophenyl)ethanamine]?
A: Maximum Inhibition (dose; mg/kg p.o.) ([2]; dose 3 mg/kg p.o.): 88% (3); ED50 [2, 4]: 0.5 mg/kg p.o.

Q: `COC(=O)COc1ccc(C[C@H](C)NC[C@H](O)c2cccc(Cl)c2)cc1` [(R,S)-N-[2-(4-carbomethoxymethoxyphenyl)-1-methylethyl]-2-hydroxy-2-(3-chlorophenyl)ethanamine] was tested. Which “Maximum Inhibition (dose; mg/kg p.o.)” value ([2]; dose 3 mg/kg p.o.) did it give?
A: Its value is 93% (3).

Q: What about the ED50 [2, 4] of the same compound?
A: Its ED50 is 0.2 mg/kg p.o.

Q: What does the source list for `C[C@H](Cc1ccc(OCC(=O)O)cc1)NC[C@H](O)c1cccc(Cl)c1` [(R,R)-N-[2-(4-carboxymethoxyphenyl)-1-methylethyl]-2-hydroxy-2-(3-chlorophenyl)ethanamine]?
A: Maximum Inhibition (dose; mg/kg p.o.) ([2]; dose 3 mg/kg p.o.): 100% (3); ED50 [2, 4]: 0.03 mg/kg p.o.

Q: For `COc1ccc2c(c1)c(CC(=O)O)c(C)n2C(=O)c1ccc(Cl)cc1` [indomethacin, reference compound], which “percentage area of damage (antral)” value ([2]; subcutaneous dose of 60 mg/kg, rat) is on record?
A: The value was 19±5%.

Q: Which results are given for `COC(=O)COc1ccc(C[C@@H](C)NC[C@H](O)c2cccc(Cl)c2)cc1` [(R,R)-N-[2-(4-carbomethoxymethoxyphenyl)-1-methylethyl]-2-hydroxy-2-(3-chlorophenyl)ethanamine]?
A: Maximum Inhibition (dose; mg/kg p.o.) ([2]; dose 3 mg/kg p.o.): 100% (3); ED50 [2, 4]: 0.02 mg/kg p.o.

Q: What does the source list for `C[C@H](Cc1ccc2c(c1)OC(C(=O)O)(C(=O)O)O2)NC[C@H](O)c1cccc(Cl)c1` [CL 316243, (R,R)-5-(2-((2-(3-chlorophenyl)-2-hydroxyethyl)amino)propyl)-1,3-benzodioxole-2,2-dicarboxylic acid]?
A: % inhibition ([3]; 10 mg/kg p.o.): 93 ± 4%; % inhibition of indomethacin-induced damage [2, 5]: 83%; Maximum Inhibition (dose; mg/kg p.o.) ([2]; dose 1 mg/kg p.o.): 96% (1); ED50 [2, 4]: 0.03 mg/kg p.o.; % inhibition of piroxicam-induced damage [1, 5]: 96%

Q: With `C[C@@H](Cc1ccc(OCC(=O)O)cc1)NC[C@H](O)c1cccc(Cl)c1` [(R,S)-N-[2-(4-carboxymethoxyphenyl)-1-methylethyl]-2-hydroxy-2-(3-chlorophenyl)ethanamine] as the compound, how does the “Maximum Inhibition (dose; mg/kg p.o.)” value ([2]; dose 3 mg/kg p.o.) read?
A: The value was 77% (3).

Q: What about the ED50 [2, 4] of the same compound?
A: Its ED50 is 0.3 mg/kg p.o.

Q: Which “% inhibition” value ([3]; 0.05 mg/kg p.o.) does the source give for `COC(=O)COc1ccc(CC(C)NCC(O)c2cccc(Cl)c2)cc1` (stereo not shown) [BRL 35135, N-[2-(4-carbomethoxymethoxyphenyl)-1-methylethyl]-2-hydroxy-2-(3-chlorophenyl)ethanamine] here?
A: Its value is 24 ± 15%.

Q: What about the “% inhibition” value ([3]; 0.1 mg/kg p.o.) of the same compound?
A: Its value is 35 ± 7%.

Q: And the “% inhibition” value ([3]; 0.5 mg/kg p.o.)?
A: The value was 76 ± 3%.

Q: And the “% inhibition” value ([3]; 2.5 mg/kg p.o.)?
A: Its value is 85 ± 3%.

Q: What about the “% inhibition” value ([3]; 10 mg/kg p.o.) of the same compound?
A: The value was 80 ± 3%.

Q: What about the “% Protection” value ([2]; 20 μg/kg p.o.) of the same compound?
A: Its value is 40%.

Q: What about the “% Protection” value ([2]; 50 μg/kg p.o.) of the same compound?
A: Its value is 48%.

Q: And the “% Protection” value ([2]; 100 μg/kg p.o.)?
A: The value was 88%.

Q: And the “% Protection” value ([2]; 500 μg/kg p.o.)?
A: Its value is 97%.

Q: What about the ED50 ([2]; gastro-protection against indomethacin-induced antral damage, rat) of the same compound?
A: The ED50 was “approximately 50 μg/kg p.o”.

Q: What does the source list for `C[C@H](Cc1ccc2c(c1)OC(C(=O)O)(C(=O)O)O2)NC[C@@H](O)c1cccc(Cl)c1` [(R,S)-5-(2-((2-(3-chlorophenyl)-2-hydroxyethyl)amino)propyl)-1,3-benzodioxole-2,2-dicarboxylic acid]?
A: Maximum Inhibition (dose; mg/kg p.o.) ([2]; dose 1 mg/kg p.o.): 64% (1); ED50 [2, 4]: 0.6 mg/kg p.o.
